Data as given in PubChem BioAssay AID342 (DTP/NCI, 2004).
“And” between values parts separate entries of the source, which are not always exact repeats. Identical values can stand only once.

System: Swiss mice, Sarcoma 180 sc, mean tumor weight T/C
Assay: NCI In Vivo Anticancer Drug Screen. Data for tumor model Sarcoma 180 (subcutaneous) in Swiss mice
Conditions: endpoint: mean tumor weight, higher = larger tumour
How it was run: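 T/C ratio: treated over vehicle-treated controls, measuring survival or tumor size in transplanted-tumor mice.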

[1] = dose: 111.0 mg/kg/injection, schedule: Q#A X014 (ip), vehicle: saline
[2] = dose: 166.5 mg/kg/injection, schedule: Q#A X014 (ip), vehicle: saline
[3] = dose: 250.0 mg/kg/injection, schedule: Q#A X014 (ip), vehicle: saline

`CCN(CC)c1ccc(/C=C/c2ccnc3ccccc23)cc1` was tested, and the T/C (dose: 1.94 mg/kg/injection, schedule: Q01DX007 (ip), vehicle: carboxymethylcellulose (CMC)) was 77 % of control, the T/C (dose: 3.88 mg/kg/injection, schedule: Q01DX007 (ip), vehicle: carboxymethylcellulose (CMC)) was 66 % of control and the T/C (dose: 6.2 mg/kg/injection, schedule: Q01DX007 (ip), vehicle: other) was 63 % of control. The T/C (dose: 7.5 mg/kg/injection, schedule: Q01DX007 (ip), vehicle: other) was 96 % of control, the T/C (dose: 7.75 mg/kg/injection, schedule: Q01DX007 (ip), vehicle: carboxymethylcellulose (CMC)) was 40 % of control and the T/C (dose: 7.75 mg/kg/injection, schedule: Q01DX007 (ip), vehicle: other) was 58 % of control. For the same molecule, the T/C (dose: 10.0 mg/kg/injection, schedule: Q01DX007 (ip), vehicle: other) was 107 % of control, the T/C (dose: 10.33 mg/kg/injection, schedule: Q01DX007 (ip), vehicle: other) was 72 % of control and the T/C (dose: 12.0 mg/kg/injection, schedule: Q01DX007 (ip), vehicle: other) was 110 % of control. For the same molecule, the T/C (dose: 12.31 mg/kg/injection, schedule: Q01DX007 (ip), vehicle: carboxymethylcellulose (CMC)) was 93 % of control and 110 % of control, the T/C (dose: 15.5 mg/kg/injection, schedule: Q01DX007 (ip), vehicle: other) was 90 % of control and the T/C (dose: 24.62 mg/kg/injection, schedule: Q01DX007 (ip), vehicle: carboxymethylcellulose (CMC)) was 59 % of control and 70 % of control. For the same molecule, the T/C (dose: 49.25 mg/kg/injection, schedule: Q01DX007 (ip), vehicle: carboxymethylcellulose (CMC)) was 53 % of control.

`c1cncc(CSc2ncnc3nc[nH]c23)c1` was tested, and the T/C (dose: 11.1 mg/kg/injection, schedule: Q#A X014 (ip), vehicle: methylcellulose (MC)) was 53 % of control, the T/C (dose: 16.65 mg/kg/injection, schedule: Q#A X014 (ip), vehicle: methylcellulose (MC)) was 60 % of control and the T/C (dose: 25.0 mg/kg/injection, schedule: Q#A X014 (ip), vehicle: methylcellulose (MC)) was 70 % of control. The T/C (dose: 37.5 mg/kg/injection, schedule: Q#A X014 (ip), vehicle: methylcellulose (MC)) was 47 % of control.

With `CN(C)[C@@H]1C(=O)C(C(=O)NCNCCCC(=O)O)=C(O)[C@@]2(O)C(=O)C3=C(O)c4c(O)cccc4[C@@](C)(O)[C@H]3C[C@@H]12` the T/C [1] was 97 % of control and 112 % of control, the T/C [2] was 101 % of control and 105 % of control and the T/C [3] was 52 % of control.

`Cc1cc(=O)[nH]c(N=Nc2c(O)[nH]c3ccccc23)n1` was tested, and the T/C (dose: 222.0 mg/kg/injection, schedule: Q01DX007 (ip), vehicle: saline) was 58 % of control, the T/C (dose: 333.0 mg/kg/injection, schedule: Q01DX007 (ip), vehicle: saline) was 75 % of control and the T/C (dose: 500.0 mg/kg/injection, schedule: Q01DX007 (ip), vehicle: saline) was 43 % of control. For the same molecule, the T/C (dose: 750.0 mg/kg/injection, schedule: Q01DX007 (ip), vehicle: saline) was 59 % of control.

For `CN(N=O)C(=O)Nc1c[nH]c(=O)[nH]c1=O`, the T/C (dose: 25.0 mg/kg/injection, schedule: Q#A X014 (ip), vehicle: carboxymethylcellulose (CMC)) was 33 % of control.

For `Clc1c(Cl)c(Cl)c(SCc2ccccc2)c(Cl)c1Cl`, the T/C [1] was 83 % of control, the T/C [2] was 70 % of control and the T/C [3] was 42 % of control. For the same molecule, the T/C (dose: 375.0 mg/kg/injection, schedule: Q#A X014 (ip), vehicle: saline) was 38 % of control.

In the case of `COC(=O)[C@@H]1c2cc3c(c(O)c2[C@@H](OC2OC(C)C(OC)C(C)(OC)C2OC)C[C@]1(C)O)C(=O)c1c(O)cc2c(c1C3=O)O[C@H]1O[C@]2(C)[C@H](O)[C@@H](N(C)C)[C@@H]1O` (stereo partly drawn), the T/C (dose: 0.2 mg/kg/injection, schedule: Q01DX007 (ip), vehicle: saline) is reported as 77 % of control, the T/C (dose: 0.3 mg/kg/injection, schedule: Q01DX007 (ip), vehicle: saline) is reported as 81 % of control and the T/C (dose: 0.44 mg/kg/injection, schedule: Q01DX007 (ip), vehicle: saline) is reported as 60 % of control. The T/C (dose: 0.67 mg/kg/injection, schedule: Q01DX007 (ip), vehicle: saline) was 57 % of control and the T/C (dose: 1.0 mg/kg/injection, schedule: Q01DX007 (ip), vehicle: saline) was 50 % of control.

`CCOC(=O)CCCc1ccc(N/N=N/c2nc[nH]c2C(N)=O)cc1` was tested, and the T/C (dose: 46.0 mg/kg/injection, schedule: Q01DX007 (ip), vehicle: carboxymethylcellulose (CMC)) was 79 % of control and 80 % of control, the T/C (dose: 187.0 mg/kg/injection, schedule: Q01DX007 (ip), vehicle: carboxymethylcellulose (CMC)) was 46 % of control and the T/C (dose: 250.0 mg/kg/injection, schedule: Q01DX007 (ip), vehicle: carboxymethylcellulose (CMC)) was 39 % of control.

For `CCn1cnc2c(=S)nc[nH]c21`, the T/C (dose: 50.0 mg/kg/injection, schedule: Q01DX007 (ip), vehicle: carboxymethylcellulose (CMC)) was 55 % of control and the T/C (dose: 100.0 mg/kg/injection, schedule: Q01DX007 (ip), vehicle: carboxymethylcellulose (CMC)) was 25 % of control.

With `Nc1cccc2c(=O)[nH][nH]c(=O)c12` the T/C (dose: 62.5 mg/kg/injection, schedule: Q01DX007 (ip), vehicle: water) was 119 % of control, the T/C (dose: 125.0 mg/kg/injection, schedule: Q01DX007 (ip), vehicle: water) was 118 % of control and the T/C (dose: 250.0 mg/kg/injection, schedule: Q01DX007 (ip), vehicle: water) was 61 % of control. For the same molecule, the T/C (dose: 375.0 mg/kg/injection, schedule: Q01DX007 (ip), vehicle: water) was 85 % of control.

With `CC(C)=C(Br)CC[C@@H](C)[C@H]1CC[C@@]2(C)C3=C(CC[C@]12C)[C@@]1(C)CC[C@H](O)C(C)(C)[C@@H]1CC3` the T/C (dose: 62.0 mg/kg/injection, schedule: Q01DX007 (sc), vehicle: steriod suspending solution) was 109 % of control, the T/C (dose: 125.0 mg/kg/injection, schedule: Q01DX007 (sc), vehicle: steriod suspending solution) was 97 % of control and the T/C (dose: 500.0 mg/kg/injection, schedule: Q01DX007 (sc), vehicle: steriod suspending solution) was 183 % of control.

In the case of `Cn1c(N)nc2nc[nH]c2c1=S`, the T/C (dose: 1.35 mg/kg/injection, schedule: Q#A X014 (ip), vehicle: methylcellulose (MC)) is reported as 108 % of control, the T/C (dose: 2.0 mg/kg/injection, schedule: Q#A X014 (ip), vehicle: methylcellulose (MC)) is reported as 45 % of control and the T/C (dose: 3.0 mg/kg/injection, schedule: Q#A X014 (ip), vehicle: methylcellulose (MC)) is reported as 67 % of control. For the same molecule, the T/C (dose: 4.5 mg/kg/injection, schedule: Q#A X014 (ip), vehicle: methylcellulose (MC)) was 37 % of control.

In the case of `Nc1nc(SC2=NCCN2)c2[nH]cnc2n1`, the T/C (dose: 1.25 mg/kg/injection, schedule: Q01DX007 (ip), vehicle: carboxymethylcellulose (CMC)) is reported as 57 % of control, the T/C (dose: 2.5 mg/kg/injection, schedule: Q01DX007 (ip), vehicle: carboxymethylcellulose (CMC)) is reported as 67 % of control and the T/C (dose: 5.0 mg/kg/injection, schedule: Q01DX007 (ip), vehicle: carboxymethylcellulose (CMC)) is reported as 57 % of control.

In the case of `S=P(N1CCCCCC1)(N1CC1)N1CC1`, the T/C (dose: 6.0 mg/kg/injection, schedule: Q01DX007 (ip), vehicle: carboxymethylcellulose (CMC)) is reported as 90 % of control, the T/C (dose: 6.5 mg/kg/injection, schedule: Q#A X014 (ip), vehicle: methylcellulose (MC)) is reported as 52 % of control and the T/C (dose: 9.0 mg/kg/injection, schedule: Q01DX007 (ip), vehicle: carboxymethylcellulose (CMC)) is reported as 60 % of control. The T/C (dose: 10.0 mg/kg/injection, schedule: Q#A X014 (ip), vehicle: methylcellulose (MC)) was 60 % of control, the T/C (dose: 13.0 mg/kg/injection, schedule: Q01DX007 (ip), vehicle: carboxymethylcellulose (CMC)) was 74 % of control and the T/C (dose: 15.0 mg/kg/injection, schedule: Q#A X014 (ip), vehicle: methylcellulose (MC)) was 53 % of control. The T/C (dose: 20.0 mg/kg/injection, schedule: Q01DX007 (ip), vehicle: carboxymethylcellulose (CMC)) was 62 % of control, the T/C (dose: 22.5 mg/kg/injection, schedule: Q#A X014 (ip), vehicle: methylcellulose (MC)) was 23 % of control and the T/C (dose: 29.0 mg/kg/injection, schedule: Q01DX007 (ip), vehicle: carboxymethylcellulose (CMC)) was 89 % of control. For the same molecule, the T/C (dose: 45.0 mg/kg/injection, schedule: Q01DX007 (ip), vehicle: carboxymethylcellulose (CMC)) was 57 % of control, the T/C (dose: 45.0 mg/kg/injection, schedule: Q01DX007 (ip), vehicle: saline) was 25 % of control and the T/C (dose: 67.0 mg/kg/injection, schedule: Q01DX007 (ip), vehicle: carboxymethylcellulose (CMC)) was 38 % of control. For the same molecule, the T/C (dose: 90.0 mg/kg/injection, schedule: Q01DX007 (ip), vehicle: saline) was 12 % of control.

With `CCCS/C(N)=N/N=C/c1ccc([N+](=O)[O-])o1` the T/C (dose: 13.5 mg/kg/injection, schedule: Q#A X014 (ip), vehicle: water) was 81 % of control, the T/C (dose: 20.0 mg/kg/injection, schedule: Q#A X014 (ip), vehicle: water) was 53 % of control and the T/C (dose: 27.0 mg/kg/injection, schedule: Q01DX007 (ip), vehicle: other) was 67 % of control. The T/C (dose: 27.0 mg/kg/injection, schedule: Q01DX007 (ip), vehicle: water) was 61 % of control, the T/C (dose: 30.0 mg/kg/injection, schedule: Q#A X014 (ip), vehicle: water) was 34 % of control and the T/C (dose: 40.0 mg/kg/injection, schedule: Q01DX007 (ip), vehicle: water) was 45 % of control. For the same molecule, the T/C (dose: 60.0 mg/kg/injection, schedule: Q01DX007 (ip), vehicle: water) was 59 % of control.
